This note sets out measurements from the Bradley open melting point set (2014).

`CCCCOC(=O)c1ccc(N)cc1` [butamben] displayed a melting point of 58 °C. The result for `O=C(O)c1ccc(O)cc1` [4-hydroxybenzoic_acid] reads 217 °C; that for `OCCc1ccccc1` [2-phenylethanol], -27 °C. Molecule `Cc1ccccc1B(O)O` [2-methylbenzeneboronic acid] gave a melting point of 163 °C. Molecule `CC(=O)Nc1ccccc1` [Acetanilide] yielded a melting point of 114 °C.

The molecule `CCOC(=O)/C(C#N)=N\Nc1cccc([N+](=O)[O-])c1` [Ethyl (2Z)-cyano[(3-nitrophenyl)hydrazono]acetate] gave a melting point of 156 °C. `O=C1C=C(c2ccccc2)c2ccccc21` [3-phenyl-1H-inden-1-one] gave a melting point of 51 °C. For `CCC(CC)CO` [2-ethyl-1-butanol], the melting point was -52 °C. Take `CCC(=O)C1(c2cccc(O)c2)CCN(C)CC1` [ketobemidone]: the melting point is 156 °C.

Turning to `Cc1occc1C(=O)O` [2-methyl-3-furoic acid], the melting point came out at 98 °C. Turning to `CC(C)Br` [2-bromopropane], the melting point was -89 °C. The result for `O=CC[C@H](O)[C@H](O)CO` [2-deoxy-D-ribose] reads 85 °C. In turn, `CCOc1ccccc1` [phenetole] had a melting point of -30 °C.

Take `CCCCOC(=O)c1ccc(O)cc1` [N-butyl 4-hydroxybenzoate]: the melting point amounted to 69 °C. The same measure for `O=[N+]([O-])c1ccccc1I` [1-iodo-2-nitrobenzene]: 50 °C; for `O=C(O)c1c(F)c(F)c(F)c(F)c1C(=O)O` [tetrafluorophthalic acid]: 156 °C. Molecule `CCOC(=O)c1ccc(B(O)O)cc1` [4-(ethoxycarbonyl)benzeneboronic acid] came in with a melting point of 139 °C. For `CC1(c2ccccc2B(O)O)OCCO1` [2-(2-methyl-1,3-dioxolan-2-yl)benzeneboronic acid], the melting point worked out at 111 °C. Turning to `Oc1ccc(Br)cc1-c1cc[nH]n1` [4-bromo-2-(1h-pyrazol-3-yl)phenol], the melting point was 162 °C. `c1ccc(-c2cccc(-c3ccccn3)n2)nc1` [2,2':6',2''-terpyridine] had a melting point of 91 °C. The result for `Cc1cc(C)nc(C)c1` [2,4,6-collidine] reads -43 °C; that for `CC(C)Cc1ccc(C(C)C(=O)O)cc1` (stereo not drawn) [4-isobutyl-alpha-methylphenylacetic acid], 77 °C. Molecule `N#Cc1cc(Br)ccc1I` [5-bromo-2-iodobenzonitrile] showed a melting point of 121 °C. `Nc1ccc(/C=C/c2ccc([N+](=O)[O-])cc2)c([N+](=O)[O-])c1` [3-nitro-4-[(E)-2-(4-nitrophenyl)ethenyl]aniline]: the melting point amounted to 202 °C. Consider `CCOC(=O)Cc1c(C)n(C(=O)c2ccc(Cl)cc2)c2ccc(OC)cc12` [Indomethacin ethyl ester], for which the melting point stood at 96 °C. The same measure for `O=C(c1ccccc1)C(O)c1ccccc1` (centres undefined) [Benzoin]: 137 °C.

`COC(=O)[C@@H](N)Cc1ccc(O)cc1` [Methyl L-tyrosinate] yielded a melting point of 134 °C. Molecule `O=C(O)c1ccccc1Br` [2-bromobenzoic acid] gave a melting point of 149 °C. The result for `CC(=O)OC1CCC2(C)C(=CCC3C2CCC2(C)C3CCC2(O)C#Cc2ccccc2)C1` (centres undefined) [17-hydroxy-21-phenylpregn-5-en-20-yn-3-yl acetate] reads 148 °C; that for `NCCCCCC(=O)O` [6-aminocaproic acid], 205 °C. With `OB(O)c1cccnc1Cl` [2-chloropyridine-3-boronic acid], the melting point amounted to 160 °C. On to `CCc1c(C)[nH]c2ccc(N(C)C)cc12` [Medmain], for which the melting point worked out at 100 °C. The result for `CC(C)CC(N)C(=O)O` (stereo in doubt) [D-Leucine] reads 293 °C; that for `O=C(c1ccc(Cl)cc1)c1nn(-c2ccccc2)/c(=N\N=C\c2ccc(F)cc2)s1`, 151 °C.

Broadly, the melting point is the temperature, or range, at which the solid turns liquid.
